Data reported in patent US6214816A, “Heterocyclic compounds” (Novo Nordisk A/S, priority 1998, dated 2001).
Structures can show the parent of a compound that is named as a salt.

Test system: histamine induced paw oedema
Assay: Histamine induced paw oedema
Format: in vivo, rat (male Sprague-Dawley)
Settings: ip, intraperitoneally 15 minutes before the anaesthetics, paw swelling 20 minutes after histamine, rat
Method: Compounds of formula I may be used to treat all painful, hyperalgesic and/or inflammatory conditions in which C-fibres play a pathophysiological role by eliciting neurogenic pain or inflammation, i.e.: The rat histamine paw oedema test was performed essentially as described by Amann et al. (Europ. J. Pharmacol. 279, 227-231, 1995). In brief 250-300 g male Sprague-Dawley rats were anaesthetized with pentobarbital sodium, and placed on a 32 degree Celsius heated table. Ten minutes later histamine (50 micoliter, 3 mg/ml) was injected in the right hind paw and 20 minutes hereafter the paw swelling was determined by water plethysmography (Ugo Basile). Test compounds were administered intraperitoneally at 15 minutes before the anaesthetics.

O=C(O)CCN1CCC(CN2c3ccccc3CCc3ccccc32)C1 (stereo not shown) [Example 1, 3-(3-(10,11-Dihydro-5H-dibenzo[b,f]azepin-5-ylmethyl)-pyrrolidin-1-yl)-propionic acid hydrochloride]
inhibition at 1 mg/kg: 56%
